Measurements taken from patent publication US20090061022A1, “Pharmaceutical composition comprising arsenite for the treatment of malignancy” (priority 2004, published 2009).
“And” between values parts separate entries of the source, which are not always exact repeats. Identical values can stand only once.

What was measured:
RXF 944LX = experiment: Anticancer activity in RXF 944LX cancer bearing nude mice, intermittent and daily schedules; conditions: for MTD: i.p., RXF 944LX
Method: Cancer fragments (1-2 mm in diameter), obtained from xenografts in serial passage in nude mice, were implanted subcutaneously (S.C.) in a flank of male NRMI nude mice (one fragment per mouse). Mice with appropriate cancer volumes (5-7 mm in diameter) were randomly distributed to treatment and control groups (4 mice/group). The start of treatment was day 0. Cancer volume and body weights were measured at least twice per week.
The cancer volume of each animal was determined by two-dimensional measurement using calipers. The volume was calculated according to the formula: (a×b^2)×0.5; wherein a and b represent two perpendicular diameters in which a (length) is the larger diameter and b (width) the smaller diameter.
Relative cancer volumes (RCV) were calculated for each individual cancer by dividing the cancer volume on day X by the cancer volume on day 0 multiplied by 100%. The cancer volume of a treatment group was expressed as the median RCV of all mice of the group. Median RCV values were used for drawing growth curves and treatment evaluation. Optimal cancer growth inhibition at a particular day within the treatment period was calculated from the median RCV values of the treated (T) versus the controlled (C) group multiplied by 100%. A T/C value<50% was considered as anti-cancer activity.
In the experiment with renal cancer RXF 944LX, the anticancer activity of the compounds was explored using two administration schedules; 1) intermittent schedule of 4 days×3, and 2) a daily schedule for 2 weeks (days 0-4, 7-11).
The dose levels chosen for sodium meta-arsenite and arsenic acid sodium salt in these schedules were based on the experience in the 1st experiment. Additional small dose finding studies were executed.

[1] = Subacute toxicity study, daily oral gavages for 14 days in the mouse, 28-day recovery; assay type: in vivo, CD-1 male mice; conditions: for Hematology: day 5 and end of treatment
Method: The nature and purpose of this subacute oral toxicity study was to determine the extent to which cumulative toxicity occurred with repeated administration of sodium meta-arsenite for 14 days to mice. Moreover, the study was intended to define the most likely target organs for toxicity and to investigate the reversibility of toxicity.
Ampoules of sodium meta-arsenite (dissolved in 10% (w/v) glucose in water) in concentrations of 0, 1.6 and 3.2 mg/ml were stored in a refrigerator in the dark. Based on the previous study, the following doses were selected: 0, 16 (½ MTD) and 32 mg/kg/day (MTD). Each dose was administered daily by oral gavages to groups of 20 CD-1 male mice for 14 days, followed by a 28-day recovery period.
Ten animals of each group were killed on day 15 (main groups). The remaining animals (recovery groups) were killed on day 43 after a recovery period of 28 days. Blood samples were collected from all main group animals on day 5 to determine effects on the hematology. Blood samples were also collected at the end of the treatment period (day 15, all main group animals) and after recovery (day 43, all recovery group animals) for hematology and clinical biochemistry.
Clinical signs were evaluated daily and body weights were recorded twice weekly. Macroscopic examination was performed at termination. Organ weight measurements were performed at scheduled termination, i.e. day 15 (main groups) and day 43 (recovery groups). Microscopic examination was performed on a selection of tissues of both main and recovery animals.

[2] = Maximum tolerated dose assessment after daily oral gavages for 14 days in the mouse; assay type: in vivo, CD-1 mice
Method: The objective of this oral toxicity study was to establish a MTD after repeated administration of sodium meta-arsenite to mice.
Ampoules of sodium meta-arsenite (dissolved in 10% (w/v) glucose in water) in concentrations of 1, 1.6, 2.6, 4.1 and 6.5 mg/ml were stored in a refrigerator in the dark. Based on the previous study, the following doses were selected: 10, 16, 26, and 41 and 65 mg/kg/day. Each dose was administered daily by oral gavages to groups of 4 male and 4 CD-1 mice for 14 days, followed by a 14-day recovery period.
Clinical signs were evaluated daily and body weights were recorded twice weekly. Scheduled termination was performed on day 29 (after 14 days of recovery). Macroscopic examination was performed on all animals.

[3] = system: panel of forty-one (41) human cancer cell lines; experiment: Cytotoxic activity, panel of forty-one (41) human cancer cell lines
Source text: In a next study, the cytotoxic activity of sodium meta-arsenite was head-to-head compared with arsenic trioxide in panels loaded with 41 cancer cell lines from ten human cancers.

[4] = Maximum tolerated dose assessment after daily oral gavages for 14 days in the rat; assay type: in vivo, Wistar rats; conditions: for Findings / Findings (mortality): rat; for MTD (or LD10 value): rats, oral once daily 14 days, calculated
Method: The objective of this oral toxicity study was to establish a MTD after repeated administration of sodium meta-arsenite to rats.
Ampoules of sodium meta-arsenite (dissolved in 10% (w/v) glucose in water) in concentrations of 1.2, 2.2, 3.8, 7.0 and 12.6 mg/ml were stored in a refrigerator in the dark. Based on the previous study, the following doses were selected: 6, 11, 19, and 35 and 63 mg/kg/day. Each dose was administered daily by oral gavages to groups of 4 male and 4 female Wistar rats for 14 days, followed by a 14-day recovery period.
Clinical signs were evaluated daily, and body weights were recorded twice weekly. Scheduled termination was performed on day 29 (after 14 days of recovery). Macroscopic examination was performed on all animals.

[5] = 8 mg/kg i.p., days 0-4, 7, 14-18
[6] = panel of 41 human cancer cell lines

O=[As][O-].[Na+] [Sodium meta-arsenite, sodium meta-arsenite]
BW loss % (day) (RXF 944LX; 4 mg/kg i.p., days 0-4, 7-11): −3 (7) %
Drug-related deaths (RXF 944LX; 4 mg/kg i.p., days 0-4, 7-11): 2/6
SGD (specific growth delay) (RXF 944LX; 4 mg/kg i.p., days 0-4, 7-11): 0.1
T/C % (RXF 944LX; 4 mg/kg i.p., days 0-4, 7-11): 55%
BW loss % (day) (RXF 944LX; 5 mg/kg i.p., days 0, 4, 8): −2 (3) %
Drug-related deaths (RXF 944LX; 5 mg/kg i.p., days 0, 4, 8): 0/6
SGD (specific growth delay) (RXF 944LX; 5 mg/kg i.p., days 0, 4, 8): −0.5
T/C % (RXF 944LX; 5 mg/kg i.p., days 0, 4, 8): 84%
BW loss % (day) (RXF 944LX; [5]): −14 (10) %
Drug-related deaths (RXF 944LX; [5]): 3/6
Drug-related deaths (RXF 944LX; 10 mg/kg i.p., days 0, 4, 8): 5/6
MTD (RXF 944LX; daily schedule (days 0-4, 7-11)): 4 mg/kg/day
MTD (RXF 944LX; intermittent schedule (4 days×3)): 5 mg/kg/day
Clinical signs ([1]; 16 mg/kg/day oral 14 days, mouse): swelling of the abdomen and piloerection
Hematology ([1]; 16 mg/kg/day): lower erythrocyte count, hemoglobin and haematocrit
Microscopic examination ([1]; 16 mg/kg/day, end of treatment): atrophy of the lymphoid organs (Peyer's patches, thymus), ulceration and hyperplasia of the fore stomach epithelium, necrosis of liver and gall bladder and myeloid hyperplasia and congestion of the sternal bone marrow
Necropsy findings ([1]; 16 mg/kg/day, end of treatment): crateriform retractions of the fore stomach
Clinical signs ([1]; 32 mg/kg/day oral 14 days, mouse): swelling of the abdomen and piloerection
Premature mortality during the treatment phase, males ([1]; 32 mg/kg/day oral 14 days, groups of 20 male mice): 7
Necropsy findings ([1]; 32 mg/kg/day, after treatment): crateriform retractions of the forestomach and a reduced thymus size
Hematology ([1]; 32 mg/kg/day): Lower leucocyte count, platelet count, affected erythrocyte parameters (lower erythrocyte count, hemoglobin and haematocrit) and low reticulocyte counts
Clinical biochemistry ([1]; 32 mg/kg/day, end of treatment): Decreased glucose, total protein and albumin concentrations and increased sodium, calcium and inorganic phosphorus concentrations
Microscopic examination ([1]; 32 mg/kg/day, end of treatment): atrophy of the lymphoid organs (mesenteric and mandibular lymph nodes, Peyer's patches, spleen and thymus), ulceration and hyperplasia of the fore stomach epithelium, ulceration of the caecum, necrosis of the liver and gall bladder
Organ weights ([1]; 32 mg/kg/day, end of treatment): Decreased absolute and relative spleen and thymus weight and increased relative liver weight
Main target organs for toxicity ([1]; 16 and 32 mg/kg/day oral 14 days, mouse): bone marrow, lymphoid organs and the forestomach
Findings ([2]; 10 mg/kg/day oral gavage 14 days, mouse): No findings were noted
Findings ([2]; 16 mg/kg/day oral gavage 14 days, mouse): Piloerection on the head was noted for one male on days 4 and 5
Findings (mortality) ([2]; 26 mg/kg/day oral gavage 14 days, mouse): No unscheduled mortality occurred
Findings (mortality) ([2]; 41 mg/kg/day oral gavage 14 days, mouse): All males died on days 2-4 and all females on days 2-7
Findings (mortality) ([2]; 65 mg/kg/day oral gavage 14 days, mouse): All animals died on days 2 or 3, all females died on day 1 or 2
MTD (or LD10 value) ([2]; mice, males and females, oral once daily 14 days, calculated): 32 mg/kg/day
MTD ([2]; mouse, oral once daily 14 days): 96 mg/m^2/day
activity in panel of 41 ([3]; 0.01 μg/ml and 0.001 μg/ml): showed no activity
cancer cell lines that responded, out of forty one (41) ([3]; 0.1 μg/ml): 16
cancer cell lines that responded, percent of 41 ([3]; 1 μg/ml, more than 70% growth inhibition): 80%
cancer cell lines in which active, percent of 41 ([3]; 10 μg/ml): 100%
selectivity (individual IC70<½ mean IC70), fraction of cell lines ([3]; breast (mammary) cancer cell lines): ¾
fold more potent than arsenic trioxide ([3]; conclusion of in vitro data): at least 10 fold
selectivity (individual IC70<½ mean IC70), fraction of cell lines ([3]; leukemia cell lines): ¾
selectivity (individual IC70<½ mean IC70), fraction of cell lines ([3]; melanoma cell lines): 4/7
Mean IC50 [3, 6]: 0.129 µg/mL
Mean IC70 [3, 6]: 0.329 μg/ml and 2.53 μM
Mean IC90 [3, 6]: 1.691 µg/mL
Mean IC70 ([3]; panel of 41 human cancer cell lines, listed as sodium meta-arsenite): 0.329 μg/ml and 2.53 μM
IC50 ([3]; read-out: Mean IC50, panel of 41 human cancer cell lines): 0.99 µM
IC90 ([3]; read-out: Mean IC90, panel of 41 human cancer cell lines): 13 µM
Findings ([4]; 6 mg/kg/day oral gavage 14 days): No findings were noted
Findings ([4]; 11 mg/kg/day oral gavage 14 days): Hunched posture was noted in one male from day 7-13 of treatment, diarrhea was observed for one male on day 6
Findings ([4]; 19 mg/kg/day oral gavage 14 days): Hunched posture (day 6-14 of treatment) was noted in 2 males
Findings (mortality) ([4]; 35 mg/kg/day oral gavage 14 days): One male was found dead on day 13 of treatment, all females died between days 3 to 6
Findings (mortality) ([4]; 63 mg/kg/day oral gavage 14 days): All animals died on days 2 to 5
MTD (or LD10 value) ([4]; females): 25 mg/kg/day
MTD (or LD10 value) ([4]; males): 33 mg/kg/day
